Data: PMC5949603, “Bridged bicyclic peptides as potential drug scaffolds: synthesis, structure, protein binding and stability” (Chemical Science, 2015)
Blank lines part the entries; values can stand above or below the compound they belong to. Where a SMILES comes first, the peptide text is derived from it. Bridges are numbered along the chain shown (N, C = ends). [ ]: non-standard residue; d: D form.

Columns and labels:
[1] = Water solubility (stated in words); assay type: physicochemical
[2] = Human serum stability assay; assay type: in vitro ADME; details: 24 h, 37 °C, 200 μM peptide
Description: Human serum was diluted 1 : 4 in DMEM. Selected peptide was diluted in TRIS buffer to a concentration of 400 μM. Aliquots of peptide solution (50 μL) were added to aliquots of serum (50 μL) in sterile Eppendorf tubes, to reach a peptide concentration of 200 μM during the assay. Samples were incubated at 37 celsius degree under gentle stirring (350 rpm). Different samples (triplicate) were quenched at different time points (0/1/3/6/24 h) by precipitating serum proteins through the addition of ZnSO4·7H2O (0.1 M, 100 μL) and cooling down in ice bath. Protein precipitates were pelleted under centrifugation and the supernatants were sampled and evaporated to dryness in a centrifugal evaporator. Samples were resuspended in a H2O/ACN (4 : 1) mixture and centrifuged again to remove residual protein precipitate. Supernatants were then sampled and analysed by LC-MS. Experiment controls included a precipitation control for each peptide, to test their resistance to the protein precipitation conditions, and serum blanks, to check reproducibility over different serum batches. Two peaks originating from DMEM, surviving the incubation in serum and the protein precipitation conditions were used as internal standard.

CALM1 (calmodulin) [3] = molecular target: T1, CALM1 (calmodulin) (Homo sapiens, UniProt P0DP23); assay: Capture compound mass spectrometry (CCMS) proteome profiling in HeLa cell lysate; assay type: binding; set-up: endogenous in cells; host or cells: HeLa cell lysate; details: probe 5 μM, competitor 240 μM, enrichment >2-fold, triplicate
Description: Capture experiments were carried out in PCR strips according to the general CCMS procedure.[48] 400 μg of HeLa cell lysate at 10 μg μL^–1 was pipetted for each set in triplicate. To the competition samples, 240 μM of BBP-competitor was added as a final concentration and incubated for 30 min at 4 °C. Assay and competition samples were then incubated with BBP-capture compounds or BBP-scaffold controls at a final concentration of 5 μM for 1 hour at 4 °C on a rotating axis and irradiated for 10 min at 310 nm in a caproBox™ (caprotec bioanalytics GmbH) to promote covalent cross-linking. Streptavidin-coated magnetic beads (Invitrogen) were added to the samples and further rotated for 1 hour at 4 °C. The beads were collected using a caproMag (caprotec bioanalytics GmbH) and washed 4 times with washing buffer (caprotec bionanalytics GmbH) followed by 3 times washing with 80% acetonitrile and lastly resuspended in MS-grade water. For tryptic digestion, the magnetic beads were incubated with trypsin in 50 mM ammonium bicarbonate for 16 hours at 37 °C. The supernatant was recovered, evaporated and stored at –20 °C until mass spectrometry analysis.
Mass Spectrometry: Tryptic digests were analyzed by online nanoflow liquid chromatography tandem MS (LC-MSn) on an UltiMate 3000 RSLCnano System (Dionex, part of Thermo Fisher Scientific, Germany) coupled to a LTQ-Orbitrap Velos instrument (Thermo Fisher Scientific, Germany) through a Proxeon nanoelectrospray ion source (Proxeon, part of Thermo Fisher Scientific, Germany). For chromatographic separation samples were first loaded on a reversed phase (RP) precolumn (Acclaim PepMap100, 5 μm, 100 Å, 100 μm i.d. × 20 mm) and separated on a RP analytical column (Acclaim PepMap RSLC C18, 2 μm, 100 Å, 75 μm i.d. × 150 mm, Dionex, part of Thermo Fisher Scientific, Germany) performing a 96 min gradient (5–45 % acetonitrile, 0.1% formic acid). MS detection was performed in the data-dependent mode allowing to automatically switch between Orbitrap-MS and LTQ-MS/MS acquisition in a top 20 configuration at 60 K resolution for a full scan with subsequent collision induced dissociation (CID) fragmentation. Full scan MS spectra (from m/z 300–2000) were acquired in the Orbitrap analyzer after accumulation to a target value of 1 × 10^6 in the linear ion trap. The most intense ions (up to twenty, depending on signal intensity) with charge state ≥2 were sequentially isolated at a target value of 5000 and fragmented in the linear ion trap using low energy CID with normalized collision energy of 35%. […] All MS/MS data were analyzed using Andromeda implemented in MaxQuant.[33] […] The label free quantification option was selected with a maximal retention time window of 2 min for the alignment between LC-MS/MS runs.

Human calmodulin (CALM1) = molecular target: T2, Human calmodulin (CALM1) (Homo sapiens, UniProt P0DP23); assay: MicroScale Thermophoresis (MST) binding to fluorescently labeled calmodulin; details: 10 nM labeled calmodulin, 25 °C
T2 construct: purchased Enzo Life Sciences, Lausen, Switzerland
Description: Human calmodulin (Enzo Life Sciences, Lausen, Switzerland) was labeled using the RED-NHS Labeling kit (NanoTemper Technologies). The labeling reaction was performed according to the manufacturer's instructions in the supplied labeling buffer applying a concentration of 20 μM protein (molar dye : protein ratio ≈ 2 : 1) at RT for 30 min. Unreacted dye was removed with the supplied dye removal columns equilibrated with MST buffer (50 mM TrisHCl pH 7.5, 150 mM NaCl, 10 mM MgCl2). The label : protein ratio was determined using photometry at 650 and 280 nm. Thereby, a ratio of 0.8 was typically achieved. The labeled calmodulin was adjusted to 20 nM with MST buffer. […]
For thermophoresis, each ligand dilution was mixed with one volume of labeled calmodulin, which leads to a final concentration of fluorescently labeled calmodulin of 10 nM and final ligand concentrations ranging from 15.3 nM to 250 μM. […] Thermophoresis was measured using a Monolith NT.115 instrument (NanoTemper Technologies GmbH) at an ambient temperature of 25 °C with 5 s/30 s/5 s laser off/on/off times, respectively. […] Data of three independently pipetted measurements were analyzed (NT.Analysis software version 1.5.41, NanoTemper Technologies) using the signal from Thermophoresis + T-Jump. […]

CALM1 (calmodulin) [4] = molecular target: T1, CALM1 (calmodulin); assay: Isothermal titration calorimetry (ITC) with calmodulin; details: 50 μM calmodulin in water, 25 °C, pH 6.5, read-out: KD (binding affinity to calmodulin by isothermal titration calorimetry)
Description: ITC experiments were performed using a MicroCal ITC200 from GE Healthcare. 27c and 28c were dissolved in water to a concentration of 0.7 and 0.6 mM, respectively. Calmodulin was dissolved in water at 50 μM. Optionally CaCl2 (final concentration 500 μM) or EDTA (final concentration 1 mM) were added. The peptide solution was injected into the calmodulin solution (2.5 μL of peptide per injection at an interval of 180 s, a total of 15 injections into the cell volume of 200 μL, with stirring speed of 800 rpm, at 25 °C). […] The experimental data were fitted to a theoretical titration curve (“one set of sites” model) using software supplied by Microcal, with n (number of binding sites per monomer), ΔH (binding enthalpy, kcal mol^–1) and Ka (association constant, M^–1), as adjustable parameters. Thermodynamic parameters were calculated from the Gibbs free energy equation, ΔG = ΔH – TΔS = –RT ln Ka, where ΔG, ΔH, and ΔS are the changes in free energy, enthalpy, and entropy of binding, respectively. T is the absolute temperature, and R = 1.98 cal mol^–1 K^–1.

- CALM1 (calmodulin) identified as target by CCMS (CALM1 (calmodulin) [3]): did not indicate this target
Compound: R^2E^1Rfz^2FK^1GFGGK(biot) [28s]

- CALM1 (calmodulin) identified as target by CCMS (CALM1 (calmodulin) [3]): did not indicate this target
Compound: R^2E^1Rfz^2FK^1GBGGK(biot) [28x]

- KD (binding affinity to calmodulin by microscale thermophoresis) (Human calmodulin (CALM1); MST buffer pH 7.5): no measurable affinity
- Kd (CALM1 (calmodulin) [4]): 6.8 ± 0.6 µM
Compound: N=C(N)NCCC[C@@H]1NC(=O)CSC[C@H]2NC(=O)[C@@H](Cc3ccccc3)NC(=O)[C@H](CCCNC(=N)N)NC(=O)[C@H](CCC(=O)NCCCC[C@@H](C(=O)NCC(N)=O)NC(=O)[C@H](Cc3ccccc3)NC2=O)NC1=O [28c, R^2E^1Rfz^2FK^1G] ({CH2CO}-RER[dF][dC]FKG-NH2; lactam 2-7; thioether N-5)

Continued, compound first:

Compound: CC(C)C[C@H]1NC(=O)CC[C@@H]2NC(=O)[C@@H]3CCCN3C(=O)[C@@H](Cc3ccccc3)NC(=O)[C@@H](CCCCNC(=O)[C@@H](C)NC2=O)NC(=O)CNC1=O [compound 1, l^1Gk^2fPE^1a^2] ([dL]G[dK][dF]PE[dA]; lactam 3-C, N-6)
- Water solubility [1]: water insoluble

Compound: CC(C)C[C@@H]1NC(=O)CC[C@@H]2NC(=O)[C@@H]3CCCN3C(=O)[C@@H](Cc3ccc(O)cc3)NC(=O)[C@@H](CCCCNC(=O)[C@H](C)NC2=O)NC(=O)CNC1=O [compound 15, L^1Gk^2yPE^1A^2] (LG[dK][dY]PEA; lactam 3-C, N-6)
- Stability upon incubation in human serum [2]: stable

Compound: K^2E^1Kwz^2WK^1GBGGK(biot) [27x]
- CALM1 (calmodulin) identified as target by CCMS (CALM1 (calmodulin) [3]): specifically targeted

Compound: K^2E^1Kwz^2WK^1GFGGK(biot) [27s]
- CALM1 (calmodulin) identified as target by CCMS (CALM1 (calmodulin) [3]): specifically targeted

Compound: NCCCC[C@@H]1NC(=O)CSC[C@H]2NC(=O)[C@@H](Cc3c[nH]c4ccccc34)NC(=O)[C@H](CCCCN)NC(=O)[C@H](CCC(=O)NCCCC[C@@H](C(=O)NCC(N)=O)NC(=O)[C@H](Cc3c[nH]c4ccccc34)NC2=O)NC1=O [27c, K^2E^1Kwz^2WK^1G] ({CH2CO}-KEK[dW][dC]WKG-NH2; lactam 2-7; thioether N-5)
- Kd (Human calmodulin (CALM1); MST buffer pH 7.5, read-out: KD (binding affinity to calmodulin by microscale thermophoresis)): 4.5 ± 1.1 µM
- Kd (CALM1 (calmodulin) [4]): 0.8 ± 0.05 µM
- Stability upon incubation in human serum [2]: entirely stable
